Series [1] in a line: daily release or elution of Bimatoprost in vitro versus time (FIG. 8). It counts as physicochemical. Particulars: four-hundred-day study. The text has this: FIG. 8 is an exemplary graph of daily release or elution of a pharmaceutical or therapeutic agent in vitro versus time. […] The target release rate in this study on rabbits was 0.050 to 0.100 micrograms per day.
The nature of series [2]: Bimatoprost sampled in the aqueous humor of dogs over time (FIG. 9). It counts as in vivo. The text has this: FIG. 9 is an exemplary graph of a therapeutic agent delivered to the aqueous humor of an eye of canines versus time.
In this example, there was a low dose group of dogs (Grp 1), a mid-dose group of dogs (Grp 2), a high dose group of dogs (Grp 3), and a placebo group of dogs (Grp 4).

Consider `CCNC(=O)CCC/C=C\C[C@@H]1[C@@H](/C=C/[C@@H](O)CCc2ccccc2)[C@H](O)C[C@@H]1O` [Bimatoprost], for which the “release rate order over time” value in series [1] is listed as “essentially a zero-order and/or a steady state elution rate”. Further, in series [2] (low dose (Grp 1), mid-dose (Grp 2), high dose (Grp 3), study period about one hundred thirteen days), the “level of Bimatoprost in the aqueous humor, elution order” value is reported as “zero-order elution rate”. Besides, the “mean measurements of Bimatoprost in the aqueous humor versus dose” value in series [2] (low, mid and high dose groups, sampled in ng/mL) is recorded as “increased with the higher doses”.
